Consider 8 molecules from PMC9516332 (Frontiers in Oncology, 2022).

Holding throughout (assay): Kinase panel profiling at 1 µmol/L (MSA or IMAP), percentage inhibition
Common to all, as to assay type: biochemical

The target in experiment [1] is T1, panel of 255 wild-type kinases (Homo sapiens, UniProt P15735).
T1 sequence (P15735 1-406): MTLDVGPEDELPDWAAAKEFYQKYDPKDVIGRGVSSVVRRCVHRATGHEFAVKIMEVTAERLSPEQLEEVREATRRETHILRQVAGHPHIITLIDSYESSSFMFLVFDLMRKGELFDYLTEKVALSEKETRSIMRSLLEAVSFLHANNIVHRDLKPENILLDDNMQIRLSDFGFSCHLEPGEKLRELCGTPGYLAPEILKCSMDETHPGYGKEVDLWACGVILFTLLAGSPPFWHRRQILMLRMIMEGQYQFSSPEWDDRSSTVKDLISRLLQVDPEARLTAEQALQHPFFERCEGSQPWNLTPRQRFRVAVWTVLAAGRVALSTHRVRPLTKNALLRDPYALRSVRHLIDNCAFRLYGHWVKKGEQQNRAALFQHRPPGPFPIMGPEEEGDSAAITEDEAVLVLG
Conditions: kinase PHKG2; 1 µmol/L single concentration; read-out: %-inhibition at 1 µmol/L, PHKG2.

For experiment [2], the target named is panel of 255 wild-type kinases (Homo sapiens, UniProt P22612). The settings on record: kinase PKACγ; 1 µmol/L single concentration; read-out: %-inhibition at 1 µmol/L, PKACγ.
The target of experiment [3] is panel of 255 wild-type kinases (Homo sapiens, UniProt P23443). Conditions: p70S6K; 1 µmol/L single concentration; read-out: %-inhibition, p70S6K.
Experiment [4] has as its target panel of 255 wild-type kinases (Homo sapiens, UniProt P31751). Conditions: AKT2 kinase assay; 1 µmol/L single concentration; read-out: %-inhibition AKT2.
Experiment [5] deals with T2, panel of 255 wild-type kinases (Homo sapiens, UniProt P53778).
T2 sequence (P53778 1-367): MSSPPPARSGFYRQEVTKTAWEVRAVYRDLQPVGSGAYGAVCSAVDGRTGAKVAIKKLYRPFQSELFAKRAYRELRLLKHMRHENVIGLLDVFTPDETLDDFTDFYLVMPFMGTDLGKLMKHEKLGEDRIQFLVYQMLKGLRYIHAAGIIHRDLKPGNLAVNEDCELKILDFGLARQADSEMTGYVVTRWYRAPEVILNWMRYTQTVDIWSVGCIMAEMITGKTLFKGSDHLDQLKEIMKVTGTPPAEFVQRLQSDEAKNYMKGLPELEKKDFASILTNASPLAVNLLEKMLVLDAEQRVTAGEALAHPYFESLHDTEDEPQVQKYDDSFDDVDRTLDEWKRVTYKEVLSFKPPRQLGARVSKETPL
Conditions: p38γ; 1 µmol/L single concentration; read-out: %-inhibition, p38γ.

The target of experiment [6] is panel of 255 wild-type kinases (Homo sapiens, UniProt P68400). The settings on record: kinase CK2α1/β; 1 µmol/L single concentration; read-out: %-inhibition at 1 µmol/L, CK2α1/β.
The target in experiment [7] is T3, panel of 255 wild-type kinases (Homo sapiens, UniProt Q13043).
T3 sequence (Q13043 1-487): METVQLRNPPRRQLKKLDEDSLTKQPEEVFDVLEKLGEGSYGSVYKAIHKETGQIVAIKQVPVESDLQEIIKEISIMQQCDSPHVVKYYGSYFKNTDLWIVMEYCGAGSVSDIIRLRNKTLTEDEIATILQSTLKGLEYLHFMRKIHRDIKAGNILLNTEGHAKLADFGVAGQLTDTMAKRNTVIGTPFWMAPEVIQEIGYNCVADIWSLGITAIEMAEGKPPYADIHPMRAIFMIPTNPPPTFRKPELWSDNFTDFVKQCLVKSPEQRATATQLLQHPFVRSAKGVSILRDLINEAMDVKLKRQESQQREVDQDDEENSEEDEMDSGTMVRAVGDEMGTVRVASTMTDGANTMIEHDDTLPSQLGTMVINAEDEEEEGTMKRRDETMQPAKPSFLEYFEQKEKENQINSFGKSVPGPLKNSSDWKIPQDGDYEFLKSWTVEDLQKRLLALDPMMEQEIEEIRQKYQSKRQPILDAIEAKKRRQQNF
Conditions: MST1; 1 µmol/L single concentration; read-out: %-inhibition, MST1.

The target in experiment [8] is panel of 255 wild-type kinases (Homo sapiens, UniProt Q13464). Conditions: kinase ROCK1; 1 µmol/L single concentration; read-out: %-inhibition at 1 µmol/L, ROCK1.
The target in experiment [9] is panel of 255 wild-type kinases (Homo sapiens, UniProt Q13882). Conditions: BRK kinase assay; 1 µmol/L single concentration; read-out: %-inhibition BRK.
Experiment [10] deals with panel of 255 wild-type kinases (Homo sapiens, UniProt Q14012). Conditions: CaMK1α kinase assay; 1 µmol/L single concentration; read-out: %-inhibition CaMK1α.
Experiment [11] concerns the target panel of 255 wild-type kinases (Homo sapiens, UniProt Q16512). The settings on record: kinase PKN1; 1 µmol/L single concentration; read-out: %-inhibition at 1 µmol/L, PKN1.
Experiment [12] concerns the target panel of 255 wild-type kinases (Homo sapiens, UniProt Q16620). The settings on record: kinase TRKB; 1 µmol/L single concentration; read-out: %-inhibition at 1 µmol/L, TRKB.
Experiment [13] concerns the target T4, panel of 255 wild-type kinases (Homo sapiens, UniProt Q96BR1).
T4 sequence (Q96BR1 1-496): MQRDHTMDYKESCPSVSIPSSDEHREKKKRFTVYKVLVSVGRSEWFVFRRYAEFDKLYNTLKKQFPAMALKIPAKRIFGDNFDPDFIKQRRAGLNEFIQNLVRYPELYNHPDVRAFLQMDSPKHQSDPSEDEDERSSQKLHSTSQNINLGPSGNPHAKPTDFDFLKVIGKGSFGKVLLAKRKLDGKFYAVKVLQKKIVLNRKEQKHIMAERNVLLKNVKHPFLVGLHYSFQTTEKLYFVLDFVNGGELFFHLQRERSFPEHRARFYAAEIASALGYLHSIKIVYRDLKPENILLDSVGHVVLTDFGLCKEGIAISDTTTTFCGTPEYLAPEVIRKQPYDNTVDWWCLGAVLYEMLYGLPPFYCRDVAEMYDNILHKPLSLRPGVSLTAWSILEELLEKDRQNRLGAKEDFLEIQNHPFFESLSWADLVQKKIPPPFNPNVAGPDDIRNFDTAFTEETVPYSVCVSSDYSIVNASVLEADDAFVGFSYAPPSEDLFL
Conditions: kinase SGK3; 1 µmol/L single concentration; read-out: %-inhibition at 1 µmol/L, SGK3.

As for `C[C@H](Nc1ncnc2nc[nH]c12)c1cc2cccc(Cl)c2c(=O)n1-c1ccccc1` [duvelisib], the inhibition at 1 µM was 0.785% in [1]; -4% in [2]; 6% in experiment [3]; -0.908% in experiment [4]; -4% in [5]; -2.47% in experiment [6]. Besides, the inhibition at 1 µM in experiment [7] is 10%; in [8], -4.36%; in experiment [9], 4.54%; in [10], -5.33%; in experiment [11] it was 11%; in [12] it was -0.401%. In addition, the inhibition at 1 µM in [13] is 1.26%.
`COC(=O)N[C@@H](C)CNc1nccc(-c2cn(C(C)C)nc2-c2cc(Cl)cc(NS(C)(=O)=O)c2F)n1` [encorafenib]: the inhibition at 1 µM is -1.79% in [1]; -2.32% in [2]; 14% in [3]; 2% in experiment [4]; 3.2% in experiment [5]; -1% in experiment [6]. Also, the inhibition at 1 µM in experiment [7] was 0.835%; in experiment [8] it was 0.403%; in experiment [9], 25%; in [10], 2.72%; in experiment [11], 6%; in experiment [12], 7.42%. The inhibition at 1 µM in experiment [13] was 5%.
As for `CCc1nc(C(N)=O)c(Nc2ccc(N3CCC(N4CCN(C)CC4)CC3)c(OC)c2)nc1NC1CCOCC1` [gilteritinib], the inhibition at 1 µM in experiment [1] is 59%; in experiment [2], 5.41%; in [3], 79%; in experiment [4], -4.73%; in experiment [5], -0.507%; in [6], 15%. In addition, the inhibition at 1 µM in experiment [7] was 92%; in [8], 60%; in [9] it was 98%; in experiment [10] it was 41%; in experiment [11] it was 65%; in experiment [12], 98%. Moreover, the inhibition at 1 µM in experiment [13] is -18%.
Consider `CCN1CCN(c2ccc(Nc3cc(N(C)C(=O)Nc4c(Cl)c(OC)cc(OC)c4Cl)ncn3)cc2)CC1` [infigratinib], for which the inhibition at 1 µM is 1.64% in [1]; -0.0435% in experiment [2]; 5.33% in experiment [3]; -0.769% in [4]; -3% in experiment [5]; -4% in experiment [6]. For the same molecule, the inhibition at 1 µM is 1.11% in experiment [7]; 0.396% in [8]; 5.46% in experiment [9]; -22% in [10]; 13% in experiment [11]; 6% in experiment [12]. In experiment [13], the inhibition at 1 µM was -3%.
Regarding `O=C(Nc1cnn2ccc(N3CCC[C@@H]3c3cc(F)ccc3F)nc12)N1CC[C@H](O)C1` [larotrectinib], the inhibition at 1 µM is 5.63% in [1]; -4% in experiment [2]; -1.58% in experiment [3]; -5.27% in [4]; 2.3% in [5]; -2.37% in experiment [6]. In addition, the inhibition at 1 µM in experiment [7] was -4%; in [8] it was -5.36%; in experiment [9] it was 4.64%; in experiment [10], -1.63%; in experiment [11], 7%; in experiment [12], 102%. Also, the inhibition at 1 µM in experiment [13] was -4.61%.
Regarding `CCN1C(=O)N(c2c(F)c(OC)cc(OC)c2F)Cc2cnc3[nH]c(CN4CCOCC4)cc3c21` [pemigatinib], the inhibition at 1 µM in experiment [1] is 8%; in experiment [2], -3.56%; in experiment [3], -0.418%; in experiment [4] it was -2.2%; in experiment [5], 1.73%; in experiment [6], -2.8%. The inhibition at 1 µM was 6% in experiment [7]; -2.6% in experiment [8]; 11% in [9]; 12% in [10]; 10% in experiment [11]; 11% in experiment [12]. Besides, the inhibition at 1 µM in experiment [13] is -7%.
On to `FC(F)(F)c1ccc(CNc2ccc(Cc3c[nH]c4ncc(Cl)cc34)cn2)cn1` [pexidartinib], for which the inhibition at 1 µM in [1] was 4.25%; in experiment [2], 3%; in experiment [3] it was 31%; in experiment [4], -6%; in [5] it was 2.47%; in [6], 0.256%. The inhibition at 1 µM in experiment [7] is 25%; in experiment [8] it was 9%; in experiment [9], 15%; in [10] it was -13%; in [11] it was -4.55%; in experiment [12], 75%. For the same molecule, in [13], the inhibition at 1 µM is -0.803%.
Take `CO[C@]1(C(=O)N[C@@H](C)c2ccc(-n3cc(F)cn3)nc2)CC[C@H](c2nc(C)cc(Nc3cc(C)[nH]n3)n2)CC1` [pralsetinib]: the inhibition at 1 µM in experiment [1] is 2.24%; in experiment [2], 10%; in experiment [3] it was 29%; in experiment [4], 0.305%; in [5] it was -1.77%; in [6] it was -2.52%. The inhibition at 1 µM is 19% in experiment [7]; 3.43% in [8]; 49% in experiment [9]; -4.72% in experiment [10]; 27% in experiment [11]; 94% in experiment [12]. Besides, the inhibition at 1 µM in experiment [13] is -0.536%.
